Values quoted from earlier work, collected in patent publication US11946086B2, “Gene involved in synthesis of cyclic peptide compound, method for producing cyclic peptide compound using the same, and transformant comprising the same” (NATIONAL INSTITUTE OF ADVANCED INDUSTRIAL SCIENCE AND …, priority 2017, dated 2024).
Non-standard residues stand in square brackets, D forms with d. Residues, ends and D or L forms follow the SMILES beside them. NMeI = CC[CH](C)[CH](NC)C(=O)O; NMeD = CN[CH](CC(=O)O)C(=O)O; NMeV = CN[CH](C(=O)O)C(C)C; Pip = O=C(O)[CH]1CCCCN1; Lac = C[CH](O)C(=O)O

Test system: plant pathogenic bacteria, and, in particular, fungi
Conditions: against plant pathogenic bacteria

Question: With CCC(C)C1C(=O)NCC(=O)N(C)C(C(C)C)C(=O)NC(Cc2ccc(OC)cc2)C(=O)OC(C)C(=O)N2CCCCC2C(=O)N(C)C(C(C)C)C(=O)NC(C(C)C)C(=O)N(C)C(CC(=O)O)C(=O)N(C)C(C(C)C)C(=O)N1C (stereo not shown) [KK-1, Tyrosine, N-[N-[N-[N-[N-[N-[N-[N-[[1-(2-hydroxy-1-oxopropyl)-2-piperidinyl]carbonyl]-N-methylvalyl]valyl]-N-methyl-a-aspartyl]-N-methylvalyl]-N-methylisoleucyl]glycyl]-N-methylvalyl]-O-methyl-, d2-lactone (9CI)] (cyclo(G[NMeV]Y(Me)[Lac][Pip][NMeV]V[NMeD][NMeV][NMeI]); configuration not given here) as the molecule, how does the bactericidal activity read?
Answer: The bactericidal activity was “potent bactericidal activity”.
